Assay results: paper PMC9841524, “Structure-Based Rational Design of Small α-Helical Peptides with Broad-Spectrum Activity against Multidrug-Resistant Pathogens” (Journal of Medicinal Chemistry, 2022)
Like-named read-outs stand apart in the source and are kept apart here. Where no end group is shown, it is not given here.

Columns and labels:
S. aureus (ATCC 29213) = test: MIC, standard microtiter dilution (CLSI); format: cell-based; conditions: broth microdilution (CLSI), CAMHB, 37 °C, 24 h
Method in brief: (§1)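 In this CLSI-recommended assay, peptides were serially diluted twofold and combined with bacteria at 10^6 CFU/mL in cation-adjusted Mueller Hinton Broth.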

E. coli (ATCC 25922) = conditions: broth microdilution (CLSI), CAMHB, 37 °C, 24 h
Method in brief: as §1

MRSA (ATCC BAA-1556) = conditions: broth microdilution (CLSI), CAMHB, 37 °C, 24 h
Method in brief: as §1

[1] = system: P. aeruginosa (ATCC 27883); test: MIC, standard microtiter dilution (CLSI); format: cell-based, Pseudomonas aeruginosa; conditions: broth microdilution (CLSI), CAMHB, 37 °C, 24 h
Method in brief: as §1

[2] = system: K. pneumoniae (ATCCBAA-1705); test: MIC, standard microtiter dilution (CLSI); format: cell-based, Klebsiella pneumoniae; conditions: broth microdilution (CLSI), CAMHB, 37 °C, 24 h
Method in brief: as §1

[3] = system: human red blood cells (hRBCs); test: Hemolytic assay; format: cell-based; conditions: 2 h, 37 °C
Method in brief: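 Percent hemolysis uses PBS as 0% and 1% Triton X-100 as 100% references, from supernatant absorbance at 567 nm. Red cells (4% in PBS, equal volume) exposed 2 h at 37 °C without agitation to 2-fold serially diluted peptide.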

[4] = Relative hydrophobicity as RP-HPLC retention time; format: physicochemical; conditions: chromatographic, Phenomenex Luna C18 4 μm 150 × 4.6 mm, linear AB gradient 1% acetonitrile/min, 0.3 mL/min, A water 0.1% TFA, B acetonitrile 0.1% TFA, 25 °C
Protocol: The purity analysis of the peptides was conducted on a RP-HPLC system (Shimadzu; LC-20ADXR) by using a Phenomenex (Luna) analytical C18 column (4 μm, 150 × 4.6 mm). The mass of the purified peptides was determined in the positive-ion mode using Q-TOF LC/MS (Compass Hystar 4.1, Bruker, USA). The purity (>95%) and mass data of all the synthesized peptides are provided in the Supporting Information.
8. Comparative Hydrophobicity analysis
The purity of all synthesized peptides was determined using reverse phase analytical HPLC
(Shimadzu; LC-20ADXR). Below mentioned are the conditions used to conduct the purity
Column: Phenomenex (Luna), 4 um, C18, 150 × 4.6 mm
Mobile Phase: Buffer A-Water containing 0.1% TFA,
Buffer B-Acetonitrile containing 0.1% TFA
Figure S52. HPLC chromatogram of 6a.
(1 picture or pasted object on this page, not shown here)

[5] = CD spectroscopy, helicity; format: physicochemical; design: key to Δ[θ]222 induced by TFE / Δ[θ]222 induced by Liposomes: mean residue molar ellipticity, mdeg cm2/(dmol × res); conditions: for [θ]222 mean residue molar ellipticity, TFE / [θ]222 mean residue molar ellipticity, Liposomes / [θ]222 mean residue molar ellipticity, PBS: CD at 222 nm, 25 °C; for [θ]222 mean residue molar ellipticity, TFE: aqueous buffer containing 50% TFE; for [θ]222 mean residue molar ellipticity, Liposomes / Δ[θ]222 induced by Liposomes: bacterial membrane mimicking liposomes; for [θ]222 mean residue molar ellipticity, Liposomes: peptide:lipid molar ratio 1:1.05; for [θ]222 mean residue molar ellipticity, PBS: phosphate buffer saline pH 7.0; for Δ[θ]222 induced by TFE / Δ[θ]222 induced by Liposomes: difference to PBS; for Δ[θ]222 induced by TFE: 50% TFE; for % of helicity induced by TFE: increase in molar ellipticity at 222 nm in the presence of 50% TFE; for % of helicity induced by Liposomes: increase in molar ellipticity at 222 nm in the presence of liposomes;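 for % of helicity induced by Liposomes: share of the total helicity with liposomes gained over the same peptide in PBS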;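 for % of helicity induced by TFE: share of the total helicity in TFE gained over the same peptide in PBS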
Protocol: The CD spectra of peptides were recorded using a Jasco J-1500 CD spectrophotometer (Jasco, Easton, MD) at 25 °C with a 1 mm path length cell. Wavelengths from 190 to 260 nm were scanned with 1.0 nm step resolution, 100 nm/min speed, 0.4 s response time, and 1 nm bandwidth. CD spectra of the peptides were collected and averaged over three scans in 10 mM sodium phosphate buffer (pH 7.2), helix-inducing solvent 50% TFE (v/v), and bacterial mimic liposomes (75 μM lipid). Spectra were corrected by subtracting a baseline spectrum containing only buffer or 50% TFE or liposomes. The mean residue molar ellipticity was calculated using the formula [drawing 3] where Ab222 is the absorbance observed at 222 nm, MRW is the mean residue molecular weight, C is the concentration in mg/mL, and L is the path length.
Table S1. RP-HPLC retention times and CD spectroscopy analysis of the selected peptides Peptide tR (min)a [θ]222b Δ[θ]222 induced by % of helicity inducedc by PBS TFE Liposomes TFE Liposomes TFE Liposomes […]
atR (min) denotes the retention time at 25°C by RP-HPLC. bThe mean residue molar ellipticity [θ] 222 (mdeg cm2/(dmol × res)) at 222 nm was measured at 25 °C in phosphate buffer saline (PBS, pH 7.0), in aqueous buﬀer containing 50% TFE (TFE), or in presence of bacterial membrane mimicking liposomes (peptide:lipid […]
c% helix induced is the increase in the molar ellipticity at 222 nm (in percentage) of a peptide in the presence of TFE or liposomes.

[6] = 10^6 CFU/mL, highest MIC of three independent experiments in triplicate
[7] = hRBC suspension 4% in PBS, hemoglobin release at 567 nm, 1% Triton X-100 = 100%
[8] = value in parentheses (μM), hRBC 4% in PBS, 567 nm

Row | Substance | MIC, S. aureus (ATCC 29213) (S. aureus (ATCC 29213); [6]) [µg/mL] | MIC, S. aureus (ATCC 29213) (S. aureus (ATCC 29213); value in parentheses (μM)) [µM] | MIC, E. coli (ATCC 25922) (E. coli (ATCC 25922); [6]) [µg/mL] | MIC, E. coli (ATCC 25922) (E. coli (ATCC 25922); value in parentheses (μM)) [µM] | MIC, MRSA (ATCC BAA-1556) (MRSA (ATCC BAA-1556); [6]) [µg/mL] | MIC, MRSA (ATCC BAA-1556) (MRSA (ATCC BAA-1556); value in parentheses (μM)) [µM] | MIC, P. aeruginosa (ATCC 27883) [1, 6] [µg/mL] | MIC, P. aeruginosa (ATCC 27883) ([1]; value in parentheses (μM)) [µM] | MIC, K. pneumoniae (ATCCBAA-1705) [2, 6] [µg/mL] | MIC, K. pneumoniae (ATCCBAA-1705) ([2]; value in parentheses (μM)) [µM] | HC50 (concentration at which 50% hemolysis was observed) [3, 7] [µg/mL] | HC50 (concentration at which 50% hemolysis was observed) [3, 8] [µM] | tR, RP-HPLC retention time (measure of overall hydrophobicity) [4] [min] | [θ]222 mean residue molar ellipticity, TFE [5] | [θ]222 mean residue molar ellipticity, Liposomes [5] | [θ]222 mean residue molar ellipticity, PBS [5] | Δ[θ]222 induced by TFE [5] | Δ[θ]222 induced by Liposomes [5] | % of helicity induced by TFE [5] [%] | % of helicity induced by Liposomes [5] [%]
1 | KWAKKWWKWWKK-NH2 [6e] | 12.5 | 6.99 | 25 | 13.98 | 12.5 | 6.99 | 25 | 13.98 | 50 | 27.96 | 360 | 201.32 | 29.87 | -18419 mdeg cm2/(dmol × res) | -13181 mdeg cm2/(dmol × res) | -7968 mdeg cm2/(dmol × res) | -10451 | -5213 | 56.74 | 39.55
2 | Ac-KWAKKWAKWWKK-NH2 [6d] | 50 | 29.15 | 100 | 58.30 | 100 | 58.30 | 100 | 58.30 | 100 | 58.30 | 345 | 201.15 | 32.81 | -18432 mdeg cm2/(dmol × res) | -24274 mdeg cm2/(dmol × res) | -13464 mdeg cm2/(dmol × res) | -4968 | -10810 | 26.95 | 44.53
3 | Ac-KWIKKWIKWWKK-NH2 [7d] | 6.2 | 3.45 | 12.5 | 6.95 | 6.2 | 3.45 | 12.5 | 6.95 | 25 | 13.89 | 160 | 88.92 | 38.75 | -11272 mdeg cm2/(dmol × res) | -19755 mdeg cm2/(dmol × res) | -3826 mdeg cm2/(dmol × res) | -7446 | -15929 | 66.05 | 80.63
4 | Ac-RWARRWARWWRR-NH2 [6c] | 50 | 26.55 | 100 | 53.10 | 50 | 26.55 | 100 | 53.10 | > 100 | > 53.10 | 110 | 58.41 | 34.61 | -18280 mdeg cm2/(dmol × res) | -20250 mdeg cm2/(dmol × res) | -10947 mdeg cm2/(dmol × res) | -7332 | -9303 | 40.11 | 45.93
5 | Ac-KWLKKWLKWWKK-NH2 [8d] | 3.1 | 1.72 | 6.2 | 3.45 | 6.2 | 3.45 | 6.2 | 3.45 | 12.5 | 6.95 | 145 | 80.59 | 39.25 | -16759 mdeg cm2/(dmol × res) | -24786 mdeg cm2/(dmol × res) | -10222 mdeg cm2/(dmol × res) | -6537 | -14564 | 39.00 | 58.75
